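Protocol summary: plate cells (96-well), add compound at 5 concentrations, incubate 48 h, interpolate endpoints linearly. GI50 = concentration required for 50% inhibition of growth. TGI marks complete inhibition of growth.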
What was measured:
Experiment in all cases: NCI-60 cell line screen, 48 h
[1] = system: DU-145 prostate
[2] = system: SF-268 CNS
[3] = system: KM12 colon
[4] = system: 786-0 renal
[5] = system: RXF 393 renal
[6] = system: CCRF-CEM leukemia
[7] = system: IGROV1 ovarian
[8] = system: MDA-N
[9] = system: SK-OV-3 ovarian
[10] = system: SK-MEL-28 melanoma

SMILES	TGI [1] [µM]	TGI [2] [µM]	TGI [3] [µM]	TGI [4] [µM]	TGI [5] [µM]	TGI [6] [µM]	TGI [7] [µM]	TGI [8] [µM]	TGI [9] [µM]	TGI [10] [µM]	GI50 [5] [µM]	GI50 [6] [µM]	GI50 [7] [µM]	GI50 [2] [µM]	GI50 [3] [µM]
O=C(N/N=C(/COc1ccccc1Cl)N=Cc1ccncc1)c1ccncc1	> 100	> 100	> 100	> 100	> 100	> 100	> 100	> 100	> 100	> 100	–	–	–	–	–
Cc1c(O)c(OC2OC(CO)C(O)C(O)C2O)cc2c1C=C[C@@H]1[C@@]2(C)C(=O)C[C@]2(C)[C@@H]([C@@](C)(O)C(=O)CCC(C)(C)O)[C@H](O)C[C@@]12C (stereo partly specified)	56.6	83.1	66.6	74.3	38.1	> 100	44.3	77.5	42.1	43.1	–	–	–	–	–
CN(C)CC1CCC/C(=C\c2ccc(OC(=O)/C=C/c3ccc(Cl)c(Cl)c3)cc2)C1=O (stereo unspecified)	> 93.3	36.1	3.61	4.19	4.41	1.77	3.15	12.1	> 100	28.1	–	–	–	–	–
CC1=CCC[C@H]2[C@](C)(CC3=CC(=O)C(Sc4ccccc4)=CC3=O)[C@@H](C)CC[C@]12C	47.4	–	> 100	32.2	34.3	17.4	30.4	32.4	–	35.7	16.1	3.89	16.2	–	–
CCOC(=O)C(=CN1CCNC1=S)C(=O)OCC	> 100	> 100	> 100	> 100	> 100	> 100	> 100	> 100	> 100	> 100	–	–	–	> 100	> 100
COC(=O)c1cccc(OC)c1C#Cc1c(OC)cccc1OC	> 100	> 100	> 100	> 100	> 100	> 100	> 100	> 100	> 100	> 100	–	–	–	–	–
COCC12CCC(OC)C34C5CC6(O)C(OC)CC(OC(C)=O)(C5C6OC(=O)c5ccccc5)C(C(OC)C13)C4N(C)C2 (stereo unspecified)	> 100	> 100	> 100	> 100	> 100	> 100	> 100	> 100	> 100	> 100	–	–	–	–	–
O=C1CS[C@@](CC(c2ccc(Cl)cc2)c2ccc(Cl)cc2)(c2ccc(Cl)cc2)N1	> 100	> 100	> 100	71.2	17.6	> 100	> 100	> 100	> 100	> 100	–	–	–	–	–
CN(C)CCNC(=O)c1ccc(Cl)c2cc3ccccc3nc12	6.2	5.05	11.4	5.61	3.08	4.64	11.3	2.21	12.8	4.03	–	–	–	–	–
Cc1cc(N(CCC#N)CCC#N)ccc1/C=C1\SC(=S)NC1=O	> 100	> 100	> 100	> 100	99.8	> 100	> 100	> 100	> 100	> 100	–	–	–	–	–
CCOC(=O)CCC(NC(=O)Cc1ccc(Oc2nc3ccccc3nc2-c2ccccc2)cc1)C(=O)OCC (stereo unspecified)	> 100	> 100	> 100	> 100	> 100	> 100	–	> 100	> 100	> 100	–	–	–	–	–
Cc1c2ccccc2c(C)n2c1nc1ccccc12	> 100	30	23.3	25.9	21.5	60.5	43.8	25	27.1	22.5	–	–	–	–	–
CC(=O)OC(C)(C)CCC(=O)[C@](C)(O)[C@H]1[C@H](O)C[C@@]2(C)[C@@H]3CC=C4C(C)=C(OC5OC(CO)C(O)C(O)C5O)C(=O)C[C@@H]4[C@]3(C)C(=O)C[C@]12C (stereo partly specified)	> 100	> 100	> 100	> 100	> 100	> 100	> 100	> 100	> 100	> 100	–	–	–	–	–
COc1cc(OC2OC(COC(=O)c3cc(O)c(O)c(O)c3)C(O)C(O)C2O)ccc1O (stereo unspecified)	> 100	> 100	> 100	> 100	> 100	> 100	> 100	> 100	–	> 100	–	–	–	–	–
c1csc(-c2ccsc2-c2ccsc2)c1	> 100	> 100	> 100	> 100	76.3	> 100	> 100	> 100	> 100	> 100	–	–	–	–	–
CCCc1nnc2sc(COc3cc(Cl)c(OCc4nn5c(CCC)nnc5s4)cc3Cl)nn12	> 100	> 100	> 100	> 100	> 100	46.8	> 100	> 100	82.5	> 100	–	–	–	–	–
CCOC(=O)C(NC(=O)CC)(Nc1ccc(F)c(Cl)c1)C(F)(F)F (stereo unspecified)	> 100	> 100	> 100	> 100	> 100	> 100	> 100	> 100	> 100	> 100	–	–	–	–	–
Cc1cc(O)cc(O)c1C(=O)O[C@]1(C)C(=O)C=C2C=C(/C=C/C(=O)O)OC=C2C1=O	> 100	> 100	> 100	> 100	> 100	88.3	> 100	> 100	> 100	> 100	–	–	–	–	–
